Source: PubChem BioAssay (NCI)
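Assay format: 96-well plates, 48-hour exposure. The concentration for 50% growth inhibition is given as GI50. The concentration for full growth arrest is given as TGI.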

Tests used:
Experiment in all cases: NCI tumour cell line growth inhibition, 48 h
HCT-116 colon = test system: HCT-116 colon
HCT-15 colon = test system: HCT-15 colon
HT29 colon = test system: HT29 colon
BT-549 breast = test system: BT-549 breast
UACC-62 melanoma = test system: UACC-62 melanoma
NCI-H460 lung = test system: NCI-H460 lung
SF-295 CNS = test system: SF-295 CNS
SK-MEL-5 melanoma = test system: SK-MEL-5 melanoma
UO-31 renal = test system: UO-31 renal
SNB-19 CNS = test system: SNB-19 CNS
HOP-62 NSCLC = test system: HOP-62 NSCLC
ACHN renal = test system: ACHN renal
HCC-2998 colon = test system: HCC-2998 colon
COLO 205 colon = test system: COLO 205 colon
OVCAR-8 ovarian = test system: OVCAR-8 ovarian
MDA-MB-231 breast = test system: MDA-MB-231 breast
OVCAR-3 ovarian = test system: OVCAR-3 ovarian
DU-145 prostate = test system: DU-145 prostate
NCI/ADR-RES ovarian = test system: NCI/ADR-RES ovarian
SNB-75 CNS = test system: SNB-75 CNS
HOP-92 NSCLC = test system: HOP-92 NSCLC
MCF7 breast = test system: MCF7 breast
A549 NSCLC = test system: A549 NSCLC
NCI-H23 lung = test system: NCI-H23 lung
K-562 leukemia = test system: K-562 leukemia
U251 CNS = test system: U251 CNS
MOLT-4 leukemia = test system: MOLT-4 leukemia
SK-OV-3 ovarian = test system: SK-OV-3 ovarian
A498 renal = test system: A498 renal
RXF 393 renal = test system: RXF 393 renal
IGROV1 ovarian = test system: IGROV1 ovarian
CAKI-1 renal = test system: CAKI-1 renal
SW-620 colon = test system: SW-620 colon
MALME-3M melanoma = test system: MALME-3M melanoma
UACC-257 melanoma = test system: UACC-257 melanoma
OVCAR-5 ovarian = test system: OVCAR-5 ovarian
KM12 colon = test system: KM12 colon
NCI-H226 lung = test system: NCI-H226 lung
786-0 renal = test system: 786-0 renal
SN12C renal = test system: SN12C renal
T-47D breast = test system: T-47D breast
TK-10 renal = test system: TK-10 renal
PC-3 prostate = test system: PC-3 prostate
SF-539 CNS = test system: SF-539 CNS
SF-268 CNS = test system: SF-268 CNS
OVCAR-4 ovarian = test system: OVCAR-4 ovarian
RPMI-8226 leukemia = test system: RPMI-8226 leukemia
M14 melanoma = test system: M14 melanoma
SK-MEL-28 melanoma = test system: SK-MEL-28 melanoma
CCRF-CEM leukemia = test system: CCRF-CEM leukemia
LOX IMVI melanoma = test system: LOX IMVI melanoma
HS 578T breast = test system: HS 578T breast
SR leukemia = test system: SR leukemia
SK-MEL-2 melanoma = test system: SK-MEL-2 melanoma
EKVX NSCLC = test system: EKVX NSCLC
HL-60(TB) leukemia = test system: HL-60(TB) leukemia

Question: For `COc1ccc2c(c1)nc1n2C(c2c(F)cccc2Cl)SC1` (stereo unspecified), which TGI (HCT-116 colon) is on record?
Answer: The TGI was > 37 µM.

Question: And the TGI (HCT-15 colon)?
Answer: The TGI was > 37.2 µM.

Question: And the TGI (HT29 colon)?
Answer: Its TGI is > 100 µM.

Question: And the TGI (BT-549 breast)?
Answer: The TGI was > 31.3 µM.

Question: And the TGI (UACC-62 melanoma)?
Answer: Its TGI is > 100 µM.

Question: And the TGI (NCI-H460 lung)?
Answer: Its TGI is > 35.1 µM.

Question: What about the TGI (SF-295 CNS) of the same compound?
Answer: Its TGI is > 24.8 µM.

Question: What about the TGI (SK-MEL-5 melanoma) of the same compound?
Answer: Its TGI is > 43.2 µM.

Question: And the TGI (UO-31 renal)?
Answer: The TGI was > 100 µM.

Question: And the TGI (SNB-19 CNS)?
Answer: Its TGI is > 58.7 µM.

Question: And the TGI (HOP-62 NSCLC)?
Answer: Its TGI is > 44.6 µM.

Question: What about the TGI (ACHN renal) of the same compound?
Answer: The TGI was > 82.9 µM.

Question: And the TGI (HCC-2998 colon)?
Answer: Its TGI is > 39.8 µM.

Question: What about the TGI (COLO 205 colon) of the same compound?
Answer: Its TGI is > 54.9 µM.

Question: What about the TGI (OVCAR-8 ovarian) of the same compound?
Answer: The TGI was 51 µM.

Question: What about the TGI (MDA-MB-231 breast) of the same compound?
Answer: Its TGI is 27.9 µM.

Question: What about the TGI (OVCAR-3 ovarian) of the same compound?
Answer: Its TGI is > 26.1 µM.

Question: What about the TGI (DU-145 prostate) of the same compound?
Answer: The TGI was > 29.3 µM.

Question: What about the TGI (NCI/ADR-RES ovarian) of the same compound?
Answer: The TGI was 4.81 µM.

Question: What about the TGI (SNB-75 CNS) of the same compound?
Answer: Its TGI is 7.85 µM.

Question: And the TGI (HOP-92 NSCLC)?
Answer: Its TGI is > 100 µM.

Question: And the TGI (MCF7 breast)?
Answer: Its TGI is > 34.8 µM.

Question: What about the TGI (A549 NSCLC) of the same compound?
Answer: Its TGI is > 50.6 µM.

Question: What about the TGI (NCI-H23 lung) of the same compound?
Answer: Its TGI is > 35 µM.

Question: What about the TGI (K-562 leukemia) of the same compound?
Answer: Its TGI is > 100 µM.

Question: And the TGI (U251 CNS)?
Answer: Its TGI is > 35.4 µM.

Question: What about the TGI (MOLT-4 leukemia) of the same compound?
Answer: The TGI was > 41.4 µM.

Question: What about the TGI (SK-OV-3 ovarian) of the same compound?
Answer: Its TGI is > 38.1 µM.

Question: What about the TGI (A498 renal) of the same compound?
Answer: Its TGI is > 29.7 µM.

Question: And the TGI (RXF 393 renal)?
Answer: Its TGI is > 22 µM.

Question: What about the TGI (IGROV1 ovarian) of the same compound?
Answer: Its TGI is > 100 µM.

Question: What about the TGI (CAKI-1 renal) of the same compound?
Answer: Its TGI is > 100 µM.

Question: And the TGI (SW-620 colon)?
Answer: The TGI was > 60.2 µM.

Question: And the TGI (MALME-3M melanoma)?
Answer: The TGI was 5.43 µM.

Question: And the TGI (UACC-257 melanoma)?
Answer: The TGI was > 43.2 µM.

Question: And the TGI (OVCAR-5 ovarian)?
Answer: The TGI was > 100 µM.

Question: And the TGI (KM12 colon)?
Answer: The TGI was > 54.4 µM.

Question: What about the TGI (NCI-H226 lung) of the same compound?
Answer: The TGI was 43.4 µM.

Question: And the TGI (786-0 renal)?
Answer: The TGI was > 41.1 µM.

Question: And the TGI (SN12C renal)?
Answer: The TGI was > 100 µM.

Question: And the TGI (T-47D breast)?
Answer: Its TGI is > 52.5 µM.

Question: What about the TGI (TK-10 renal) of the same compound?
Answer: Its TGI is > 76.8 µM.

Question: What about the TGI (PC-3 prostate) of the same compound?
Answer: The TGI was > 51.6 µM.

Question: What about the TGI (SF-539 CNS) of the same compound?
Answer: Its TGI is 16.1 µM.

Question: What about the TGI (SF-268 CNS) of the same compound?
Answer: Its TGI is 90.6 µM.

Question: What about the TGI (OVCAR-4 ovarian) of the same compound?
Answer: The TGI was > 100 µM.

Question: And the TGI (RPMI-8226 leukemia)?
Answer: The TGI was > 47.8 µM.

Question: And the TGI (M14 melanoma)?
Answer: The TGI was > 24.7 µM.

Question: What about the TGI (SK-MEL-28 melanoma) of the same compound?
Answer: Its TGI is 37.2 µM.

Question: What about the TGI (CCRF-CEM leukemia) of the same compound?
Answer: The TGI was > 100 µM.

Question: And the TGI (LOX IMVI melanoma)?
Answer: The TGI was > 61.6 µM.

Question: And the TGI (HS 578T breast)?
Answer: The TGI was 6.4 µM.

Question: And the TGI (SR leukemia)?
Answer: Its TGI is > 36.4 µM.

Question: What about the TGI (SK-MEL-2 melanoma) of the same compound?
Answer: Its TGI is > 27.7 µM.

Question: And the TGI (EKVX NSCLC)?
Answer: The TGI was > 100 µM.

Question: How did the GI50 (HCT-15 colon) turn out when `CCOC(=O)c1cc(C(=O)c2cc(OC)cc(OC)c2)n2ncc3ccccc3c12` was run?
Answer: Its GI50 is 0.484 µM.

Question: What about the TGI (HCT-15 colon) of the same compound?
Answer: The TGI was > 100 µM.

Question: And the GI50 (BT-549 breast)?
Answer: The GI50 was 1.18 µM.

Question: And the TGI (BT-549 breast)?
Answer: Its TGI is > 100 µM.

Question: What about the GI50 (HL-60(TB) leukemia) of the same compound?
Answer: Its GI50 is 0.82 µM.

Question: And the TGI (HL-60(TB) leukemia)?
Answer: Its TGI is > 100 µM.

Question: And the GI50 (UACC-62 melanoma)?
Answer: The GI50 was 0.692 µM.

Question: What about the TGI (UACC-62 melanoma) of the same compound?
Answer: Its TGI is > 100 µM.

Question: What about the GI50 (SF-295 CNS) of the same compound?
Answer: The GI50 was 0.483 µM.

Question: And the TGI (SF-295 CNS)?
Answer: The TGI was > 100 µM.

Question: And the GI50 (SK-MEL-5 melanoma)?
Answer: Its GI50 is 0.623 µM.

Question: And the TGI (SK-MEL-5 melanoma)?
Answer: Its TGI is > 100 µM.

Question: What about the GI50 (SNB-19 CNS) of the same compound?
Answer: Its GI50 is 1.57 µM.

Question: And the TGI (SNB-19 CNS)?
Answer: Its TGI is > 100 µM.

Question: And the GI50 (NCI/ADR-RES ovarian)?
Answer: Its GI50 is 0.476 µM.

Question: And the TGI (NCI/ADR-RES ovarian)?
Answer: The TGI was > 100 µM.

Question: And the GI50 (MCF7 breast)?
Answer: Its GI50 is 0.41 µM.

Question: What about the TGI (MCF7 breast) of the same compound?
Answer: Its TGI is > 100 µM.

Question: And the GI50 (UACC-257 melanoma)?
Answer: Its GI50 is > 100 µM.

Question: And the TGI (UACC-257 melanoma)?
Answer: Its TGI is > 100 µM.

Question: What about the GI50 (PC-3 prostate) of the same compound?
Answer: Its GI50 is 0.839 µM.

Question: And the TGI (PC-3 prostate)?
Answer: The TGI was > 100 µM.

Question: What about the GI50 (SF-268 CNS) of the same compound?
Answer: The GI50 was 1.59 µM.

Question: And the TGI (SF-268 CNS)?
Answer: The TGI was > 100 µM.

Question: And the GI50 (M14 melanoma)?
Answer: Its GI50 is 0.485 µM.

Question: What about the TGI (M14 melanoma) of the same compound?
Answer: The TGI was > 100 µM.

Question: And the GI50 (HS 578T breast)?
Answer: Its GI50 is 1.84 µM.

Question: What about the TGI (HS 578T breast) of the same compound?
Answer: Its TGI is > 100 µM.

Question: What about the GI50 (SR leukemia) of the same compound?
Answer: The GI50 was 0.442 µM.

Question: And the TGI (SR leukemia)?
Answer: Its TGI is > 100 µM.

Question: `COc1cc2nc(N3CCN(C(=O)c4ccco4)CC3)nc(N)c2cc1OC` was tested. Which TGI (NCI-H23 lung) did it give?
Answer: Its TGI is 27.1 µM.
